Data on 3 compounds can be found in US12571794B2, “Epigen AU/11: a natural matrix for restoring homeostasis in cancer cell-infiltrated tissue” (priority 2024, dated 2026).

Counter-ions that a name gives are not always drawn. Like-named read-outs stand apart in the source and are kept apart here.

Series [1] has as its system explanted biopsies from A431 graft. Kind of series: Ex vivo explanted biopsies, cell viability by flow cytometry (Annexin V). The series is classed as cell-based, human cells grown in immunocompromised mice. Conditions: 72 hours ex vivo; EpigenAU/11 50 mg/ml (pH 5.6), cisplatin 150 μg/ml, HCl to pH 5.6. (In general: In flow cytometry, cells or beads pass a laser one at a time.)
Experimental: Analysis of cell viability in explanted biopsies from the FaDu (9A) and A431 (9B) cell lines was performed after 72 hours of ex vivo treatment. […] Cell viability was analysed using a flow cytometer with the Pacific Blue™ Annexin V/SYTOX™ AADvanced™ Apoptosis Kit, following the manufacturer's instructions. Viability is expressed as a percentage, with untreated controls set at 100%. […] Data are represented as mean±SD; *p<0.03;***p<0.0002.
Analysis of cell viability in explanted biopsies from the A431 cell lines was performed after 72 hours of ex vivo treatment. […] Cell viability was analysed using a flow cytometer with the Pacific Blue™ Annexin V/SYTOX™ AADvanced™ Apoptosis Kit, following the manufacturer's instructions. Viability is expressed as a percentage, with untreated controls set at 100%. […] Data are represented as mean±SD; **p<0.02.
To further substantiate these findings, an ex vivo test was conducted using explanted biopsies from the FaDu and A431 cell lines. These biopsies were generated by injecting the cells into immunocompromised mice, thereby creating a more intricate three-dimensional structure that closely mimics the tumour microenvironment. […] Following the 72-hour treatment period, cell viability was analysed using flow cytometry.

Series [2] deals with FaDu xenografts. The series is classed as in vivo, mice. Further details: key to Loss of Straightening reflex / Loss of Cleaning / Loss of Curiosity / Loss of Reactivity / Loss of Spontaneous activity: untreated animal value = 0, plus treated animal value. An excerpt: (§1) The risk (intended as side effects) was estimated through the observation of behavioural parameters (impacting the behaviour itself, the locomotor system, muscle strength and nervous reflexes) and through the potential weight loss of the animal.
Data obtained by animal testing, considered in the context of the risk, are behavioural parameters and body weight loss at the end of experimentation.
The behavioural parameters monitored are listed below: • 1. Loss of Spontaneous activity • 2. Loss of Cleaning • 3. Loss of Curiosity • 4. Loss of Reactivity • 5. Loss of Straightening reflex • 6. Loss of Physical strength • 7. Impairment of Palpebral opening • 8. Palpebral reflex • 9. Tremors • 10. Pallor • 11. Stereotypies • 12. Passivity
The values of the parameters 1-8 are normalized as: “Not treated animal value” (always equal to 0)+“Treated animal value”.
The values of the parameters 9-12 are normalized as: “Not treated animal value”-“Treated animal value”.
The potential weight loss of the treated animals was also assessed.” Data were processed using the formula: 1−[“Body weight of treated animals (day of observation: 27)/body weight of untreated animals (day of observation: 19)]
Data were calculated as “Reduction in the size of tumour mass” by the formula: 1−[“Tumour mass size collected from treated animals (day of observation: 27)/Tumour mass size collected from untreated animals (day of observation: 19)]

Series [3] deals with Head and Neck Cancer patient-derived tumour organoids. Briefly: EpigenAU/11 combinations with chemotherapeutics on patient-derived tumour organoids (summary table). The series is classed as cell-based. Conditions: chemotherapy combined with EpigenAU/11.
Series [4] deals with biopsies derived from the FaDu graft. Kind of series: Genome-wide gene expression profiling, ex vivo. It counts as cell-based, human. Conditions: 6 hours; EpigenAU/11 50 mg/ml, cisplatin 150 μg/ml, alone and combined.
Series [5] has as its system bladder tumour organoid Bladder 41. Kind of series: Tumour organoid viability with chemotherapeutics, CellTiter-Glo 3D. The series is classed as cell-based, human. Conditions: Bladder Cancer patient-derived tumour organoids; chemotherapy combined with EpigenAU/11. How it is done: (§2) 39A bladder 38, 39B bladder 41, 39C breast 203, 39D Endometrium 12. […] Breast organoids (Breast 203): Treated sequentially with paclitaxel (P, 50 nM)+carboplatin (C, 100 nM) for 72 hours, followed by epirubicin (E, 1 μM)+cyclophosphamide (Cy 7 μM) for an additional 72 hours. Endometrial organoid (Endometrium 12): Treated with carboplatin (C, 100 nM), paclitaxel (P, 100 nM), or their combination for 72 hours. ATP content, measured by CellTiter-Glo® 3D, is expressed as a percentage of cell viability, with untreated controls set at 100%. Statistical analysis was performed using one-way ANOVA followed by Dunnett's test, with significant differences denoted by p<0.002 (**) and p<0.0001 (****). Data are presented as mean±SD.

Series [6] relates to osteosarcoma spheroids (143B, SaOS-2, U-2 OS). Kind of series: 3D spheroids toxicity, Cell Titer-Glo 3D (ATP). It counts as cell-based. Conditions: 72 hours; EpigenAU/11 0.22 mg/ml, CDDP 15 μg/ml. The method, then: The Cell Titer-Glo® 3D Viability Assay was used to quantify ATP as a marker of cell viability. Results are expressed as the survival ratio (%) between treated cells and their corresponding untreated controls.
In addition to the findings above, several partners contributed to the development of more complex in vitro models, including 3D spheroids, which better mimic the three-dimensional structure of tumours and their microenvironment.
The viability of both control and treated cells was assessed 72 hours after the start of treatment by quantifying ATP levels using the Cell Titer-Glo® 3D Viability Assay following the manufacturer's instructions.
(Cellular ATP, detected with luciferase, serves as a proxy for viable cell number.)

The subject of series [7] is A431 xenografts. The series is classed as in vivo, athymic mice. Conditions: excised at end of 15-day treatment, six mice. How it is done:
Tumour growth curve of A431 xenografts in athymic mice over 15 days of treatment. […] Tumour volume was measured every other day. Data are represented as mean±SEM; **p<0.02; ****p<0.001.
In this trial, athymic mice were subcutaneously injected with 1×10^6 A431 cells into their flank to develop xenograft tumours.

The subject of series [8] is explanted biopsies from FaDu graft. The series is classed as cell-based, human cells grown in immunocompromised mice. Conditions: 72 hours ex vivo; EpigenAU/11 50 mg/ml (pH 5.6), cisplatin 150 μg/ml, HCl to pH 5.6.
Experimental: Analysis of cell viability in explanted biopsies from the FaDu (9A) and A431 (9B) cell lines was performed after 72 hours of ex vivo treatment. […] Cell viability was analysed using a flow cytometer with the Pacific Blue™ Annexin V/SYTOX™ AADvanced™ Apoptosis Kit, following the manufacturer's instructions. Viability is expressed as a percentage, with untreated controls set at 100%. One-way ANOVA analysis followed by Dunnett's test confirmed significant differences among the groups. Data are represented as mean±SD; *p<0.03;***p<0.0002.
(§3) Analysis of cell viability in explanted biopsies from the FaDu cell lines was performed after 72 hours of ex vivo treatment. […] Cell viability was analysed using a flow cytometer with the Pacific Blue™ Annexin V/SYTOX™ AADvanced™ Apoptosis Kit, following the manufacturer's instructions. Viability is expressed as a percentage, with untreated controls set at 100%. […]
as §3
Following the 72-hour treatment period, cell viability was analysed using flow cytometry.
For series [9], the system named is non-cancerous spheroids (MSC, HuDe). Briefly: 3D spheroids toxicity, Cell Titer-Glo 3D (ATP). The series is classed as cell-based, human. Conditions: 72 hours; EpigenAU/11 0.22 mg/ml, CDDP 15 μg/ml.
Text: Additionally, two 3D spheroids from non-cancerous cell lines were included in the study: • MSC (BM-derived Mesenchymal Stromal Cells): Multipotent stromal cells derived from bone marrow. • HuDe (Human Dermal Fibroblasts): Non-cancerous dermal fibroblast cells.
In series [10] the test system is FaDu xenografts. Conditions: for MITOSIS (amount of mitosis in 2.37 mm^2; 10x): H&E staining of excised tumours. The method, then: Tumour growth curve of FaDu xenografts in athymic mice over 27 days of treatment. […] Tumour volume was measured every other day. Data are represented as mean±SEM; *p<0.05; **p<0.02. One-way ANOVA followed by Fisher's LSD test was used for statistical analysis.
In this investigation, an in vivo trial utilizing FaDu cells was performed to explore this interaction.
All treatments commenced when tumours reached a volume of 0.1 cm^3.
The response in mice was evaluated using criteria akin to RECIST 1.1 guidelines.
For this purpose, immunocompromised mice bearing xenografted FaDu head and neck squamous carcinoma cells were included in the study once tumours reached a volume of 100 mm^3.

On the set-up of series [11]: species or system mice. Conditions: mouse, in vivo. The method, then: Furthermore, to better understand the potential systemic toxicity of the treatments, an Irwin test was conducted, evaluating a range of physiological and behavioural parameters, including general behaviour, CNS excitement, movement coordination, muscle tone, reflex responses, and autonomic signs.
Parameters assessed include general behaviour, central nervous system (CNS) excitement, movement coordination, muscle tone, reflex responses, and autonomic signs.
as §1

In series [12] the test system is FaDu, A431 and HuDe cells. Kind of series: Intracellular pH (pHrodo Green AM). It counts as cell-based, human. Conditions: EpigenAU/11 0.66 mg/ml or HCl, one hour. An excerpt: Cells were labelled with pHrodo™ Green AM Intracellular pH Indicator according to manufacturers' instructions. pH values were normalized with respect to cell number, measured by Nuclear Mask Red staining.

Series [13] has as its system endometrial tumour organoid Endometrium 12. Conditions: 72 hours; EpigenAU/11 0.66 mg/ml, carboplatin 100 nM, paclitaxel 100 nM. The method, then:
as §2

In the case of `N.N.[Cl][Pt][Cl]` [Cisplatin], the cell death entry in series [1] was “around 30%”. Also, in [2] (1−[body weight treated day 27/untreated day 19]), the Weight loss was found to be 0.22. Besides, the “Reduction in the size of tumour mass” value in series [2] (1−[tumour mass size treated day 27/untreated day 19]) was 0.64. Further, in [2] (mouse, in vivo), the “IN VIVO BENEFIT SCORE” value is 0.64. In series [2] (normalised risk parameter), the “Impairment of Palpebral opening” value turned out to be 2.00, the “Loss of Cleaning” value amounted to 1.50, the “Loss of Curiosity” value was found to be 1.60 and the “Loss of Palpebral reflex” value was determined as 1.20. Further, in [2] (normalised risk parameter), the “Loss of Physical strength” value worked out at 1.30, the “Loss of Reactivity” value amounted to 1.40, the “Loss of Spontaneous activity” value is on record as 1.80 and the “Loss of Straightening reflex” value is given as 1.40. Further, in [2] (normalised risk parameter), the Pallor stood at 2.00, the Passivity was found to be 1.10, the Stereotypies amounted to 0.00 and the Tremors amounted to 0.80. For the same compound, in series [2] (sum of risk parameters), the “IN VIVO RISK SCORE” value was found to be 16. For the same compound, the “Cooperative Effect with EpigenAU/11” value in series [3] is reported as “YES”. Moreover, the “modulation of cancer-related pathways (gene expression)” value in series [4] is on record as “comparable downregulatory effect across many of the same pathways”. Moreover, the “Cooperative Effect with EpigenAU/11” value in series [5] is on record as “YES”. The “viability (ATP levels) of cancerous spheroids” value in series [6] was “indiscriminately killed both cancerous and healthy cells”. For the same compound, the MEAN tumour mass in series [7] is 368 mg. Moreover, the cell death result in [8] is “around 25%”. In series [9], the “viability (ATP levels) of healthy spheroids” value is “indiscriminately killed both cancerous and healthy cells”. The tumour progression result in [10] (27 days, cisplatin 2 mg/kg i.p. every two days) was “stabilization of the disease”. The “MITOSIS (amount of mitosis in 2.37 mm^2; 10x)” value in [10] was 14 (±8). In [10] (listed as cisplatin), the “MITOSIS (amount of mitosis in 2.37 mm^2; 10x)” value is 14. For the same compound, the “Size of tumor masses (Mean)” value in series [10] (day of observation 27) came to 0.50. For the same compound, in [10] (explanted after 27 days of treatment, five mice), the MEAN tumour mass was determined as 454 mg. The “Body weight (Mean)” value in [10] (mouse, in vivo) came to 29.12. For the same compound, the “reduction in overall biological functions” value in [11] is 30-40%.

Regarding `Cl` [HCl, hydrochloric acid], in [12], the “intracellular pH” value is “no observable effects”. The cell death result in series [1] and in series [8] was “no significant signs of cell death” each time.

In the case of `N.N.O=C([O-])C1(C(=O)[O-])CCC1.[Pt+2]` [carboplatin], in [13], the “viability (ATP, untreated = 100%)” value was found to be 85.1%.
